Reference: publication PMC12279193 (Advanced Science, 2025)
pKd: −log10 of the molar value.

Experiments:
[1] = molecular target: T1, HCoV-OC43 spike protein (Human coronavirus OC43, UniProt P36334); type: binding
T1 construct: gene S

[2] = molecular target: S-RBD protein; SARS-CoV-2 RBD (Severe acute respiratory syndrome coronavirus 2, UniProt P0DTC2); test: 1H CPMG and STD NMR; DARTS; type: binding; conditions: 200 µM S416, 5 µM RBD, PBS in D2O, 5% DMSO-d6, 25 °C

T1 sequence (P36334 14-1297): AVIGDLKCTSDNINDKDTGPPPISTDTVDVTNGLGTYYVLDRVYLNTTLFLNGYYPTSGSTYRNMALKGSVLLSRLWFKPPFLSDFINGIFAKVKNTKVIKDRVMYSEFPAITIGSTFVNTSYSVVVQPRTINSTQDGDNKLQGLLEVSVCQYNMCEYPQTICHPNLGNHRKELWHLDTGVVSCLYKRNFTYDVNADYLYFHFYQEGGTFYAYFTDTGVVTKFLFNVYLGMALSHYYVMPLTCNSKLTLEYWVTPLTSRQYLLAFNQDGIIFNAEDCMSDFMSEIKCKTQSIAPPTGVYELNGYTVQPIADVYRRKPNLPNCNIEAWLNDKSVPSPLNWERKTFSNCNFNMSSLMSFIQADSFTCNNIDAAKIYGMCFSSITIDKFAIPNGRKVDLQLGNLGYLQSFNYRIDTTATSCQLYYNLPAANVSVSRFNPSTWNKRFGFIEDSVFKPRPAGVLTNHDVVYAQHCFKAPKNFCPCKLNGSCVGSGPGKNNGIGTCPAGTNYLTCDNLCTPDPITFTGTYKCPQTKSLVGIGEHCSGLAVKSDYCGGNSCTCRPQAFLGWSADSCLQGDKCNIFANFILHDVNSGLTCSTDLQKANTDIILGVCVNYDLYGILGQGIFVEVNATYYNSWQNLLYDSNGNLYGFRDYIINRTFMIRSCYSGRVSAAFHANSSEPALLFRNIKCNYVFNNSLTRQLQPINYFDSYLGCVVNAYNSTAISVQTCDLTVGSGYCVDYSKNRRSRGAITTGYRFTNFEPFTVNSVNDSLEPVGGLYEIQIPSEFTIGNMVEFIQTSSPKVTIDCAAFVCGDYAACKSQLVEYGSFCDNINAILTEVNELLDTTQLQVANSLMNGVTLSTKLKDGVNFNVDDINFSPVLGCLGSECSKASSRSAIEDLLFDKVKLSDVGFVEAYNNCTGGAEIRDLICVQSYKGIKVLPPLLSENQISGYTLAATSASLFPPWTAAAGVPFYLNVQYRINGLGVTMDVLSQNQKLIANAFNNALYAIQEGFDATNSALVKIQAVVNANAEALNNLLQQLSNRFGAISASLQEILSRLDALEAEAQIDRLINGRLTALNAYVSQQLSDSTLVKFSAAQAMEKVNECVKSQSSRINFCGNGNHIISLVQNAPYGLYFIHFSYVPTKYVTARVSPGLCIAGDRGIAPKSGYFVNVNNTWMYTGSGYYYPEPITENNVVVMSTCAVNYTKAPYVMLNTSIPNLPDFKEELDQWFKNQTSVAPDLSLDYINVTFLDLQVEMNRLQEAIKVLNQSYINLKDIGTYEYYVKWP

In the case of `CN(/N=C/c1ccccc1C(=O)O)c1nc(-c2ccccc2Cl)cs1` [S416], the pKd [1] was 4.48 and the “1H CPMG and STD NMR; DARTS” value [2] was “confirmed that S416 could indeed bind to RBD directly”.
